Data as given in PubChem BioAssay (NCI).
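Grown in 96-well plates, cells were treated for 48 hours with each compound at five concentrations. Insufficient inhibition: endpoint recorded as highest concentration tested. GI50 is the concentration that inhibits growth by half. TGI: concentration producing complete growth inhibition.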

Columns and labels:
Assay in all cases: NCI anticancer screen, dose series, 48 h
[1] = system: IGROV1 ovarian
[2] = system: SK-MEL-2 melanoma
[3] = system: NCI-H226 lung
[4] = system: MDA-MB-231 breast
[5] = system: A549 NSCLC
[6] = system: KM12 colon
[7] = system: SNB-19 CNS
[8] = system: RXF 393 renal
[9] = system: OVCAR-5 ovarian
[10] = system: UACC-62 melanoma
[11] = system: U251 CNS
[12] = system: HCT-15 colon
[13] = system: DU-145 prostate
[14] = system: HCC-2998 colon
[15] = system: HT29 colon
[16] = system: HOP-62 NSCLC
[17] = system: SR leukemia
[18] = system: HS 578T breast
[19] = system: NCI-H23 lung
[20] = system: SN12C renal
[21] = system: M14 melanoma
[22] = system: SK-MEL-28 melanoma
[23] = system: NCI/ADR-RES ovarian
[24] = system: HCT-116 colon
[25] = system: CCRF-CEM leukemia
[26] = system: BT-549 breast
[27] = system: MCF7 breast
[28] = system: OVCAR-4 ovarian
[29] = system: T-47D breast
[30] = system: RPMI-8226 leukemia
[31] = system: SF-268 CNS
[32] = system: K-562 leukemia
[33] = system: OVCAR-8 ovarian
[34] = system: SF-539 CNS
[35] = system: NCI-H522 lung
[36] = system: TK-10 renal
[37] = system: SNB-75 CNS
[38] = system: ACHN renal
[39] = system: UO-31 renal
[40] = system: HOP-92 NSCLC
[41] = system: NCI-H460 lung
[42] = system: EKVX NSCLC
[43] = system: MOLT-4 leukemia
[44] = system: SK-MEL-5 melanoma
[45] = system: SF-295 CNS
[46] = system: A498 renal
[47] = system: SK-OV-3 ovarian
[48] = system: HL-60(TB) leukemia
[49] = system: PC-3 prostate
[50] = system: MDA-MB-435
[51] = system: MALME-3M melanoma
[52] = system: SW-620 colon
[53] = system: OVCAR-3 ovarian
[54] = system: COLO 205 colon
[55] = system: UACC-257 melanoma
[56] = system: LOX IMVI melanoma
[57] = system: 786-0 renal
[58] = system: CAKI-1 renal

CC(C)=CC(=O)OCC(=O)O[C@@H]1C[C@]2(C(C)C)O[C@@]1(C)[C@@H]1CC[C@@H](C)[C@H]1[C@@H]2OC(=O)/C=C/c1ccccc1
GI50 [1]: > 61.8 µM
TGI [1]: > 100 µM
GI50 [2]: > 56.4 µM
TGI [2]: > 85.9 µM
GI50 [3]: 9.47 µM
TGI [3]: > 94.1 µM
GI50 [4]: > 51.7 µM
TGI [4]: > 85.2 µM
GI50 [5]: > 57.2 µM
TGI [5]: > 100 µM
GI50 [6]: > 56 µM
TGI [6]: > 100 µM
GI50 [7]: > 58.5 µM
TGI [7]: > 100 µM
GI50 [8]: 0.382 µM
TGI [8]: 11.7 µM
GI50 [9]: > 62.7 µM
TGI [9]: > 100 µM
GI50 [10]: 24.4 µM
TGI [10]: > 100 µM
GI50 [11]: > 56.4 µM
TGI [11]: > 100 µM
GI50 [12]: 42.1 µM
TGI [12]: > 100 µM
GI50 [13]: > 69.2 µM
TGI [13]: > 100 µM
GI50 [14]: > 57.2 µM
TGI [14]: > 100 µM
GI50 [15]: > 56.4 µM
TGI [15]: > 100 µM
GI50 [16]: > 62.3 µM
TGI [16]: > 100 µM
GI50 [17]: 11.1 µM
TGI [17]: > 100 µM
GI50 [18]: 0.064 µM
TGI [18]: 0.548 µM
GI50 [19]: > 50.4 µM
TGI [19]: > 96.4 µM
GI50 [20]: 5.9 µM
TGI [20]: > 93.2 µM
GI50 [21]: > 57.8 µM
TGI [21]: > 100 µM
GI50 [22]: > 63.3 µM
TGI [22]: > 100 µM
GI50 [23]: 2.25 µM
TGI [23]: > 85.5 µM
GI50 [24]: 11 µM
TGI [24]: > 100 µM
GI50 [25]: 29.6 µM
TGI [25]: > 100 µM
GI50 [26]: 2.11 µM
TGI [26]: > 73.2 µM
GI50 [27]: 35.3 µM
TGI [27]: > 100 µM
GI50 [28]: 30.2 µM
TGI [28]: > 100 µM
GI50 [29]: 18.9 µM
TGI [29]: > 100 µM
GI50 [30]: 7.89 µM
TGI [30]: > 100 µM
GI50 [31]: > 38.1 µM
TGI [31]: > 100 µM
GI50 [32]: 7.75 µM
TGI [32]: > 100 µM
GI50 [33]: 0.912 µM
TGI [33]: > 72.9 µM
GI50 [34]: > 72.7 µM
TGI [34]: > 100 µM
GI50 [35]: > 62.1 µM
TGI [35]: > 100 µM
GI50 [36]: > 70.4 µM
TGI [36]: > 100 µM
GI50 [37]: 34.2 µM
TGI [37]: > 87.5 µM
GI50 [38]: 0.3 µM
TGI [38]: > 19.6 µM
GI50 [39]: 0.239 µM
TGI [39]: 2.36 µM
GI50 [40]: 5.18 µM
TGI [40]: > 75.4 µM
GI50 [41]: > 63 µM
TGI [41]: > 100 µM
GI50 [42]: > 51 µM
TGI [42]: > 100 µM
GI50 [43]: 43.4 µM
TGI [43]: > 100 µM
GI50 [44]: 49.2 µM
TGI [44]: > 66.1 µM
GI50 [45]: > 48.3 µM
TGI [45]: > 100 µM
GI50 [46]: 0.179 µM
TGI [46]: 0.679 µM
GI50 [47]: > 55.7 µM
TGI [47]: > 100 µM
GI50 [48]: 11.6 µM
TGI [48]: > 69.4 µM
GI50 [49]: 6.01 µM
TGI [49]: > 100 µM
GI50 [50]: > 67.9 µM
TGI [50]: > 100 µM
GI50 [51]: > 55.5 µM
TGI [51]: > 100 µM
GI50 [52]: > 60.4 µM
TGI [52]: > 100 µM
GI50 [53]: > 42.3 µM
TGI [53]: > 100 µM
GI50 [54]: > 48.5 µM
TGI [54]: > 65.3 µM
GI50 [55]: > 47.5 µM
TGI [55]: > 94.3 µM
GI50 [56]: 33.4 µM
TGI [56]: > 70.5 µM
GI50 [57]: 7.21 µM
TGI [57]: > 100 µM
GI50 [58]: 0.346 µM

CC1=C(SCCC(=O)OCC(=O)NCCC[Te]c2ccccc2)C(=O)c2ccccc2C1=O
GI50 [1]: 1.92 µM
TGI [1]: 5.58 µM
GI50 [2]: 2.75 µM
TGI [2]: 7.24 µM
GI50 [3]: 1.64 µM
TGI [3]: 3.64 µM
GI50 [4]: 1.8 µM
TGI [4]: 4.34 µM
GI50 [5]: 0.793 µM
TGI [5]: 2.95 µM
GI50 [6]: 2.96 µM
TGI [6]: 10.1 µM
GI50 [7]: 2.78 µM
TGI [7]: 10.4 µM
GI50 [8]: 1.78 µM
TGI [8]: 5.16 µM
GI50 [9]: 2.86 µM
TGI [9]: 7.68 µM
GI50 [10]: 1.94 µM
TGI [10]: 4.83 µM
GI50 [11]: 2.39 µM
TGI [11]: 8.06 µM
GI50 [12]: 2.73 µM
TGI [12]: 11.4 µM
GI50 [13]: 2.95 µM
TGI [13]: 8.05 µM
GI50 [14]: 1.78 µM
TGI [14]: 4.58 µM
GI50 [15]: 3.29 µM
TGI [15]: 11.1 µM
GI50 [16]: 2.04 µM
TGI [16]: 5.19 µM
GI50 [17]: 1.97 µM
TGI [17]: 17.4 µM
GI50 [18]: 2.97 µM
TGI [18]: > 33.7 µM
GI50 [19]: 1.84 µM
TGI [19]: 5.25 µM
GI50 [20]: 2.21 µM
TGI [20]: 7.99 µM
GI50 [21]: 2.11 µM
TGI [21]: 5.27 µM
GI50 [22]: 2.41 µM
TGI [22]: 5.78 µM
GI50 [23]: 2.22 µM
TGI [23]: 7.32 µM
GI50 [24]: 1.63 µM
TGI [24]: 4.12 µM
GI50 [25]: 2.1 µM
TGI [25]: 19.6 µM
GI50 [26]: 1.7 µM
TGI [26]: 3.95 µM
GI50 [27]: 2.5 µM
TGI [27]: 10.7 µM
GI50 [28]: 2.21 µM
TGI [28]: 7.34 µM
GI50 [29]: 2.2 µM
TGI [29]: 6.21 µM
GI50 [30]: 2.64 µM
TGI [30]: 9.84 µM
GI50 [31]: 2.61 µM
TGI [31]: 9.42 µM
GI50 [32]: 3.3 µM
TGI [32]: 19.4 µM
GI50 [33]: 2.74 µM
TGI [33]: 11 µM
GI50 [34]: 2.29 µM
TGI [34]: 6.71 µM
GI50 [35]: 2.71 µM
TGI [35]: 10.8 µM
GI50 [36]: 3.87 µM
TGI [36]: 12.4 µM
GI50 [37]: 1.37 µM
TGI [37]: 5.42 µM
GI50 [38]: 2.76 µM
TGI [38]: 10.2 µM
GI50 [39]: 1.74 µM
TGI [39]: 8.66 µM
GI50 [40]: 1.8 µM
TGI [40]: 5.01 µM
GI50 [41]: 0.79 µM
TGI [41]: 3 µM
GI50 [42]: 0.443 µM
TGI [42]: 5.11 µM
GI50 [43]: 3.12 µM
TGI [43]: 12.2 µM
GI50 [44]: 1.52 µM
TGI [44]: 2.88 µM
GI50 [45]: 1.11 µM
TGI [45]: 4.24 µM
GI50 [46]: 1.9 µM
TGI [46]: 6.16 µM
GI50 [47]: 1.9 µM
TGI [47]: 4.62 µM
GI50 [48]: 2.58 µM
TGI [48]: 7.07 µM
GI50 [49]: 1.96 µM
TGI [49]: 9.76 µM
GI50 [50]: 3.07 µM
TGI [50]: 10.4 µM
GI50 [51]: 2.22 µM
TGI [51]: 5.56 µM
GI50 [52]: 3.79 µM
TGI [52]: 15.6 µM
GI50 [53]: 2.23 µM
TGI [53]: 4.81 µM
GI50 [54]: 1.97 µM
TGI [54]: 3.88 µM
GI50 [55]: 2.88 µM
TGI [55]: 8.23 µM
GI50 [56]: 1.72 µM
TGI [56]: 4.07 µM
GI50 [57]: 2.64 µM
TGI [57]: 7.33 µM
GI50 [58]: 1.86 µM
TGI [58]: 6.87 µM
